# In patent publication US6737383B1, “Herbicidal oxadiazolidines” (priority 1999, dated 2004):
# Assays:
# [1] = system: wild oat; experiment: Test B pre/postemergence wild oat; type: in vivo, Avena fatua
# Summary of the method: (§1)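 Test chemicals in a non-phytotoxic solvent mixture with surfactant were sprayed preemergence onto planted seeds and postemergence onto plants 2 to 18 cm tall (1- to 4-leaf stage). After twelve to sixteen days in a greenhouse, injury was visually rated against untreated controls from 0 (no effect) to 10 (complete control).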
# [2] = system: surinam grass; experiment: Test B pre/postemergence surinam grass; type: in vivo, Brachiaria decumbens
# Summary of the method: as §1
# [3] = system: velvetleaf; experiment: Test B pre/postemergence velvetleaf; type: in vivo, Abutilon theophrasti
# Summary of the method: as §1
# [4] = system: morningglory; experiment: Test B pre/postemergence morningglory; type: in vivo, Ipomoea hederacea
# Summary of the method: as §1
# [5] = system: corn; experiment: Test B pre/postemergence corn; type: in vivo, Zea mays
# Summary of the method: as §1
# [6] = system: rape; experiment: Test B pre/postemergence rape; type: in vivo, Brassica napus
# Summary of the method: as §1
# [7] = system: bedstraw; experiment: Test B pre/postemergence bedstraw; type: in vivo, Galium aparine
# Summary of the method: as §1
# [8] = system: giant foxtail; experiment: Test B pre/postemergence giant foxtail; type: in vivo, Setaria faberii
# Summary of the method: as §1
# [9] = system: purple nutsedge; experiment: Test B pre/postemergence purple nutsedge; type: in vivo, Cyperus rotundus
# Summary of the method: as §1
# [10] = system: wheat; experiment: Test B pre/postemergence wheat; type: in vivo, Triticum aestivum
# Summary of the method: as §1
# [11] = system: soybean; experiment: Test B pre/postemergence soybean; type: in vivo, Glycine max
# Summary of the method: as §1
# [12] = system: crabgrass; experiment: Test B pre/postemergence crabgrass; type: in vivo, Digitaria sanguinalis
# Summary of the method: as §1
# [13] = system: pigweed; experiment: Test B pre/postemergence pigweed; type: in vivo, Amaranthus retroflexus
# Summary of the method: as §1
# [14] = system: cocklebur; experiment: Test B pre/postemergence cocklebur; type: in vivo, Xanthium strumarium
# Summary of the method: as §1
# [15] = system: blackgrass; experiment: Test B pre/postemergence blackgrass; type: in vivo, Alopecurus myosuroides
# Summary of the method: as §1
# [16] = system: sugar beet; experiment: Test B pre/postemergence sugar beet; type: in vivo, Beta vulgaris
# Summary of the method: as §1
# [17] = Postemergence, Rate 62 g/ha, scale of 0 to 10, 0 is no effect, 10 is complete control
# [18] = Postemergence, Rate 500 g/ha, scale 0 to 10, 0 is no effect, 10 is complete control
# [19] = Preemergence, Rate 62 g/ha, scale 0 to 10 (0 no effect, 10 complete control)
# [20] = Preemergence, Rate 125 g/ha, scale 0 to 10, 0 is no effect, 10 is complete control
# [21] = Preemergence, Rate 500 g/ha, scale of 0 to 10 where 0 is no effect and 10 is complete control
# [22] = Rate 250 g/ha, Postemergence, scale of 0 to 10 where 0 is no effect and 10 is complete control
# [23] = Postemergence, Rate 125 g/ha, scale 0 to 10, 0 is no effect, 10 is complete control
structure (smiles),measurement,setting,value
CC(C)N(C(=O)n1oc(=O)n(CCCC(F)(F)F)c1=O)c1ccc(Cl)cc1 [Compound 555],Wild oats plant response rating,[1]; [17],0
same,"Plant response rating, Wild oats",[1]; [18],2
same,Wild oats plant response rating,[1]; [19],0
same,Wild oats plant response rating,[1]; [20],0
same,Wild oats plant response rating (0 to 10 scale),"[1]; Preemergence, Rate 250 g/ha",0
same,Wild oats plant response rating,[1]; [21],7
same,"Plant response rating, Wild oats",[1]; [22],0
same,B. signalgrass plant response rating,[2]; [17],0
same,B. signalgrass plant response rating,[2]; [23],0
same,"Plant response rating, B. signalgrass",[2]; [18],4
same,B. signalgrass plant response rating,[2]; [19],6
same,B. signalgrass plant response rating,[2]; [21],8
same,"Plant response rating, B. signalgrass",[2]; [22],0
same,Velvetleaf plant response rating,[3]; [17],0
same,"Plant response rating, Velvetleaf",[3]; [18],4
same,Velvetleaf plant response rating,[3]; [19],0
same,Velvetleaf plant response rating,[3]; [20],0
same,Velvetleaf plant response rating (0 to 10 scale),"[3]; Preemergence, Rate 250 g/ha",0
same,Velvetleaf plant response rating,[3]; [21],6
same,"Plant response rating, Velvetleaf",[3]; [22],2
same,Morningglory plant response rating,[4]; [17],1
same,Morningglory plant response rating,[4]; [23],2
same,"Plant response rating, Morningglory",[4]; [18],6
same,Morningglory plant response rating,[4]; [19],0
same,Morningglory plant response rating,[4]; [20],0
same,Morningglory plant response rating (0 to 10 scale),"[4]; Preemergence, Rate 250 g/ha",0
same,Morningglory plant response rating,[4]; [21],0
same,"Plant response rating, Morningglory",[4]; [22],5
same,Corn plant response rating,[5]; [17],0
same,Corn plant response rating,[5]; [23],0
same,"Plant response rating, Corn",[5]; [18],0
same,Corn plant response rating,[5]; [19],0
same,Corn plant response rating,[5]; [20],0
same,Corn plant response rating (0 to 10 scale),"[5]; Preemergence, Rate 250 g/ha",0
same,Corn plant response rating,[5]; [21],2
same,"Plant response rating, Corn",[5]; [22],0
same,Rape plant response rating,[6]; [17],4
same,Rape plant response rating,[6]; [23],5
same,"Plant response rating, Rape",[6]; [18],5
same,Rape plant response rating,[6]; [19],0
same,Rape plant response rating,[6]; [20],0
same,Rape plant response rating (0 to 10 scale),"[6]; Preemergence, Rate 250 g/ha",0
same,Rape plant response rating,[6]; [21],0
same,Bedstraw plant response rating,[7]; [17],2
same,Bedstraw plant response rating,[7]; [23],9
same,Bedstraw plant response rating,[7]; [19],0
same,Bedstraw plant response rating,[7]; [20],0
same,Bedstraw plant response rating (0 to 10 scale),"[7]; Preemergence, Rate 250 g/ha",0
same,Bedstraw plant response rating,[7]; [21],0
same,"Plant response rating, Bedstraw",[7]; [22],9
same,Giant foxtail plant response rating,[8]; [17],0
same,Giant foxtail plant response rating,[8]; [23],0
same,"Plant response rating, Giant foxtail",[8]; [18],8
same,Giant foxtail plant response rating,[8]; [19],9
same,Giant foxtail plant response rating,[8]; [20],10
same,Giant foxtail plant response rating (0 to 10 scale),"[8]; Preemergence, Rate 250 g/ha",10
same,Giant foxtail plant response rating,[8]; [21],10
same,"Plant response rating, Giant foxtail",[8]; [22],8
same,Nutsedge plant response rating,[9]; [17],0
same,Nutsedge plant response rating,[9]; [23],0
same,"Plant response rating, Nutsedge",[9]; [18],0
same,Nutsedge plant response rating,[9]; [19],0
same,Nutsedge plant response rating,[9]; [20],0
same,Nutsedge plant response rating (0 to 10 scale),"[9]; Preemergence, Rate 250 g/ha",0
same,Nutsedge plant response rating,[9]; [21],0
same,"Plant response rating, Nutsedge",[9]; [22],0
same,Wheat plant response rating,[10]; [17],6
same,"Plant response rating, Wheat",[10]; [18],2
same,Wheat plant response rating,[10]; [19],0
same,Wheat plant response rating,[10]; [20],0
same,Wheat plant response rating (0 to 10 scale),"[10]; Preemergence, Rate 250 g/ha",2
same,Wheat plant response rating,[10]; [21],3
same,"Plant response rating, Wheat",[10]; [22],0
same,Soybean plant response rating,[11]; [17],1
same,"Plant response rating, Soybean",[11]; [18],2
same,Soybean plant response rating,[11]; [19],0
same,Soybean plant response rating,[11]; [20],0
same,Soybean plant response rating (0 to 10 scale),"[11]; Preemergence, Rate 250 g/ha",0
same,Soybean plant response rating,[11]; [21],2
same,"Plant response rating, Soybean",[11]; [22],2
same,Crabgrass plant response rating,[12]; [17],0
same,Crabgrass plant response rating,[12]; [23],0
same,"Plant response rating, Crabgrass",[12]; [18],10
same,Crabgrass plant response rating,[12]; [19],9
same,Crabgrass plant response rating,[12]; [20],9
same,Crabgrass plant response rating (0 to 10 scale),"[12]; Preemergence, Rate 250 g/ha",10
same,Crabgrass plant response rating,[12]; [21],10
same,"Plant response rating, Crabgrass",[12]; [22],9
same,Redroot pigweed plant response rating,[13]; [17],0
same,"Plant response rating, Redroot pigweed",[13]; [18],2
same,Redroot pigweed plant response rating,[13]; [19],0
same,Redroot pigweed plant response rating,[13]; [20],0
same,Redroot pigweed plant response rating (0 to 10 scale),"[13]; Preemergence, Rate 250 g/ha",3
same,Redroot pigweed plant response rating,[13]; [21],7
same,"Plant response rating, Redroot pigweed",[13]; [22],2
same,Cocklebur plant response rating,[14]; [17],0
same,Cocklebur plant response rating,[14]; [23],0
same,"Plant response rating, Cocklebur",[14]; [18],3
same,Cocklebur plant response rating,[14]; [19],0
same,Cocklebur plant response rating,[14]; [20],0
same,Cocklebur plant response rating (0 to 10 scale),"[14]; Preemergence, Rate 250 g/ha",2
same,Cocklebur plant response rating,[14]; [21],9
same,"Plant response rating, Cocklebur",[14]; [22],0
same,Blackgrass plant response rating,[15]; [17],0
same,Blackgrass plant response rating,[15]; [23],2
same,"Plant response rating, Blackgrass",[15]; [18],5
same,Blackgrass plant response rating,[15]; [19],0
same,Blackgrass plant response rating,[15]; [20],0
same,Blackgrass plant response rating (0 to 10 scale),"[15]; Preemergence, Rate 250 g/ha",0
same,Blackgrass plant response rating,[15]; [21],8
same,"Plant response rating, Blackgrass",[15]; [22],2
same,Sugarbeets plant response rating,[16]; [17],0
same,"Plant response rating, Sugarbeets",[16]; [18],0
same,Sugarbeets plant response rating,[16]; [19],2
same,Sugarbeets plant response rating,[16]; [20],5
same,Sugarbeets plant response rating,[16]; [21],5
same,"Plant response rating, Sugarbeets",[16]; [22],0
